{"source": "patent US20050026933A1", "about": "“Use of a combination of an epidermal growth factor receptor kinase inhibitor and cytotoxic agents for treatment and inhibition of cancer” (Wyeth Holdings Corporation, priority 2003, published 2005)", "key": {"[1]": {"system": "LoVo colon carcinoma cells", "assay": "LoVo colon carcinoma xenograft in athymic nu/nu mice", "type": "in vivo, mouse xenograft of human tumor cells", "details": "5-FU study LoVo, EKB-569 20 mg/kg PO days 1-20, 5-FU 40 mg/kg IP days 1, 5, 9, 13", "method": "(§1) In all of the experiments, athymic nu/nu female mice (Charles River Laboratories) were injected SC (subcutaneously) with either 7×10^6 or 1×10^7 LoVo colon carcinoma cells or 5×10^6 GEO colon carcinoma cells. When tumors attained a mass of between 80 and 120 mg (Day 0), animals were randomized into treatment groups each containing between 5 and 20 animals, (dependent upon the experiment). Mice were treated orally (PO) with EKB-569 or vehicle control for 15 to 20 days, depending upon the experiment. EKB-569 was formulated in 0.5% Methocel, 0.4% Tween 80. Cytotoxic agents, (paclitaxel, 5-FU and cisplatin), were given either by […] (IP) or intravenous (IV) administration on either days 1, 5 and 9 or on days 1, 5, 9 and 13, depending upon the experiment. Tumor mass ([Length×Width^2]/2) was determined every seven days post staging for up to 35 days. The relative tumor growth, (Mean tumor mass on day measured divided by the mean tumor mass on day zero), and the percent Tumor/Control, (% T/C), was then calculated for each treatment group for as long as the control group remained. The % T/C is defined as the Mean Relative Tumor Growth of the Treated Group divided by the Mean Relative Tumor Growth of Vehicle Control Group multiplied by 100. The data was analyzed via Student's one-tailed t-test. A p-value≦0.05 indicates a statistically significant reduction in relative tumor growth of treated group compared with the vehicle control group or drug treated group.\nThe activity of EKB-569 in combination with paclitaxel was assessed using the human colon carcinoma lines LoVo and GEO. In the LoVo experiment, 20 mg/kg EKB-569 was administered PO for 20 consecutive days. Twenty mg/kg paclitaxel prepared in 2% cremophor el and 2% ethanol was administered IV on days 1, 5, 9 and 13.\nThe activity of EKB-569 in combination with 5-FU was assessed in LoVo and GEO xenografts. In the LoVo experiment, 20 mg/kg EKB-569 was administered for 20 consecutive days while 40 mg/kg 5-FU was administered IP on days 1, 5, 9 and 13. In the GEO experiment, 80 mg/kg EKB-569 was administered PO for 15 consecutive days while 40 mg/kg 5-FU was administered IP on days 1, 5, 9 and 13. […] At all time points, tumor size was smaller in the combination group compared with the single agent groups in these experiments.\nThe activity of EKB-569 in combination with cisplatin was assessed in LoVo and GEO xenografts. In the LoVo study, 20 mg/kg EKB-569 was administered PO for 20 consecutive days while 3 mg/kg cisplatin was administered IP on days 1, 5 and 9. In the GEO experiment, 80 mg/kg EKB-569 was administered PO for 15 consecutive days while 3 mg/kg cisplatin was administered I P on days 1, 5, 9 and 13. In both these experiments, combination therapy gave statistically significant, (p≦0.05), tumor growth inhibition than either drug alone at 3 out of 4 time points examined."}, "[2]": {"system": "GEO colon carcinoma cells", "assay": "GEO colon carcinoma xenograft in athymic nu/nu mice", "type": "in vivo, human", "details": "for RTG (Relative Tumor Growth): EKB-569 80 mg/kg PO, paclitaxel 25 mg/kg IV", "method": "as §1\nIn the experiment of Table 1 (GEO), 80 mg/kg EKB-569 was administered PO for 15 consecutive days while 25 mg/kg paclitaxel was administered IV on days 1, 5, 9 and 13 (Table 1). The results obtained in this study were identical to that in the LoVo study except that there was up to 85% tumor growth inhibition seen in the group receiving combination therapy.\nThe activity of EKB-569 in combination with 5-FU was assessed in LoVo and GEO xenografts. In the LoVo experiment, 20 mg/kg EKB-569 was administered for 20 consecutive days while 40 mg/kg 5-FU was administered IP on days 1, 5, 9 and 13. In the GEO experiment, 80 mg/kg EKB-569 was administered PO for 15 consecutive days while 40 mg/kg 5-FU was administered IP on days 1, 5, 9 and 13. […] At all time points, tumor size was smaller in the combination group compared with the single agent groups in these experiments. […]"}, "[3]": {"details": "5-FU study GEO, Day 8, EKB-569 80 mg/kg PO days 1-15, 5-FU 40 mg/kg IP days 1, 5, 9, 13"}, "[4]": {"details": "5-FU study GEO, Day 14, EKB-569 80 mg/kg PO days 1-15, 5-FU 40 mg/kg IP days 1, 5, 9, 13"}, "[5]": {"details": "5-FU study GEO, Day 21, EKB-569 80 mg/kg PO days 1-15, 5-FU 40 mg/kg IP days 1, 5, 9, 13"}, "[6]": {"details": "5-FU study GEO, Day 28, EKB-569 80 mg/kg PO days 1-15, 5-FU 40 mg/kg IP days 1, 5, 9, 13"}, "[7]": {"details": "paclitaxel study, Day 6, EKB-569 80 mg/kg PO days 1-15, paclitaxel 25 mg/kg IV days 1, 5, 9, 13"}, "[8]": {"details": "paclitaxel study, Day 15, EKB-569 80 mg/kg PO days 1-15, paclitaxel 25 mg/kg IV days 1, 5, 9, 13"}}, "data": [{"smiles": "O=c1[nH]cc(F)c(=O)[nH]1", "note": "[5-FU, 5-Fluorouracil]", "values": [{"measurement": "% T/C", "setting": "[1]; Day 7", "result": 59, "unit": "%"}, {"measurement": "% T/C", "setting": "[1]; Day 14", "result": 63, "unit": "%"}, {"measurement": "% T/C", "setting": "[1]; Day 21", "result": 85, "unit": "%"}, {"measurement": "% T/C", "setting": "[1]; Day 29", "result": 77, "unit": "%"}, {"measurement": "% T/C", "setting": "[2]; [3]", "result": 58, "unit": "%"}, {"measurement": "% T/C", "setting": "[2]; [4]", "result": 47, "unit": "%"}, {"measurement": "% T/C", "setting": "[2]; [5]", "result": 50, "unit": "%"}, {"measurement": "% T/C", "setting": "[2]; [6]", "result": 60, "unit": "%"}]}, {"smiles": "CCOc1cc2ncc(C#N)c(Nc3ccc(F)c(Cl)c3)c2cc1NC(=O)C=CCN(C)C", "note": "[EKB-569, 4-dimethylamino-but-2-enoic acid [4-(3-chloro-4-fluoro-phenylamino)-3-cyano-7-ethoxy-quinolin-6-yl]-amide]", "values": [{"measurement": "% T/C", "setting": "[1]; Day 7", "result": 84, "unit": "%"}, {"measurement": "% T/C", "setting": "[1]; Day 14", "result": 67, "unit": "%"}, {"measurement": "% T/C", "setting": "[1]; Day 21", "result": 77, "unit": "%"}, {"measurement": "% T/C", "setting": "[1]; Day 29", "result": 95, "unit": "%"}, {"measurement": "% T/C", "setting": "[2]; [3]", "result": 55, "unit": "%"}, {"measurement": "% T/C", "setting": "[2]; [4]", "result": 54, "unit": "%"}, {"measurement": "% T/C", "setting": "[2]; [5]", "result": 81, "unit": "%"}, {"measurement": "% T/C", "setting": "[2]; [6]", "result": 95, "unit": "%"}, {"measurement": "% T/C", "setting": "[2]; [7]", "result": 51, "unit": "%"}, {"measurement": "RTG (Relative Tumor Growth)", "setting": "[2]; paclitaxel study, Day 6", "result": 1.78}, {"measurement": "% T/C", "setting": "[2]; [8]", "result": 53, "unit": "%"}, {"measurement": "RTG (Relative Tumor Growth)", "setting": "[2]; paclitaxel study, Day 15", "result": 3.33}, {"measurement": "RTG (Relative Tumor Growth)", "setting": "[2]; paclitaxel study, Day 21", "result": 5.19}, {"measurement": "RTG (Relative Tumor Growth)", "setting": "[2]; paclitaxel study, Day 28", "result": 5.78}]}, {"smiles": "CC(=O)O[C@H]1C(=O)[C@@]2(C)[C@H]([C@H](OC(=O)c3ccccc3)[C@]3(O)C[C@H](OC(=O)[C@H](O)[C@@H](NC(=O)c4ccccc4)c4ccccc4)C(C)=C1C3(C)C)[C@]1(OC(C)=O)CO[C@@H]1C[C@@H]2O", "note": "[Paclitaxel, paclitaxel]", "values": [{"measurement": "% T/C", "setting": "[2]; [7]", "result": 46, "unit": "%"}, {"measurement": "RTG (Relative Tumor Growth)", "setting": "[2]; paclitaxel study, Day 6", "result": 1.63}, {"measurement": "% T/C", "setting": "[2]; [8]", "result": 43, "unit": "%"}, {"measurement": "RTG (Relative Tumor Growth)", "setting": "[2]; paclitaxel study, Day 15", "result": 2.69}, {"measurement": "RTG (Relative Tumor Growth)", "setting": "[2]; paclitaxel study, Day 21", "result": 2.24}, {"measurement": "RTG (Relative Tumor Growth)", "setting": "[2]; paclitaxel study, Day 28", "result": 2.70}]}]}
